Data published in patent US7375122B2, “Compounds useful as pesticides” (Dow AgroSciences LLC, priority 2002, dated 2008).

Experiments:
Assay type in all cases: in vivo
[1] = tested on: Cotton Aphid (Aphis gossypll); test: Testing with Cotton Aphid, track sprayer application on infested cotton plants; settings: for LC90: cotton aphid on cotton plants, track sprayer approx. 200 L/ha, count of living non-winged aphids
Protocol: Alcala cotton plants were grown from seed in 7-cm pots under greenhouse conditions until they reached 35 to 40 cm in height; approximately four weeks old with 5 to 6 true leaves. The plants were then stripped of all foliage except for the two uppermost true leaves. Two days prior to application, heavily infested leaf sections from a cotton aphid colony were cut and placed on each untreated leaf surface. Over the two days, all stages of the aphids abandon the excised host material and migrate to the succulent growth, predominantly the lower surface of the leaves. Plants were checked prior to application for even infestation levels. Treatments consisted of 4 replicates (plants) each with 2 leaves per plant.
Formulation of technical compound was in a solvent solution. For the top rate of each compound, 20 milligrams of technical material was dissolved in 2 milliliters (ml) of a 9:1 mixture of acetone:ethanol solvent. Once dissolved, an additional 18-ml of the solvent mix was added to yield a 1 mg/ml spray solution. Additional rates were then prepared by serial dilution.
Application was made by an automated tracksprayer (RC-Insecticide #1, Serial MS-9′-002, MANDEL Scientific Company Ltd.) equipped with a single TX6 SS hollow cone nozzle to simulate an over-the-top application by a boom sprayer. Spray pressure was set at 50 PSI, and the nozzle head was set approximately 40 cm above the leaf surface (depending on the leaf position it ranged from 35-45 cm). Track velocity and all other settings were calibrated to deliver approximately 200 L/ha. After application and drying, the plants were transferred and kept in controlled environment until assessment.
Assessment of compound efficacy is evaluated by counting all living non-winged stage aphids infesting each replicate using a dissecting microscope.

[2] = tested on: Sweetpotato Whitefly, Bemisia tabaci; test: Testing with Sweetpotato Whitefly, track sprayer application on egg-infested cotton plants; settings: for LC90: sweetpotato whitefly on cotton plants, track sprayer, assessment at 13 days after application
Protocol: Greenhouse-grown cotton plants (ca. five weeks old, grown in 7×7 cm pots containing ca. 231 cm^3 of potting soil mixture) were prepared for whitefly infestation by removing all foliage except the first or second pair of fully expanded true leaves. These plants are then moved into the whitefly colony room of the insectary (temperature maintained at 27° C.), where they are surrounded by cotton or velvetleaf plants infested with all life stages of B. tabaci. Initial movement of B. tabaci adults onto the prepared cotton plants is encouraged by gently shaking the foliage of the surrounding infested cotton and velvetleaf foliage using a 1.5-meter long willow branch. The prepared plants are left in place within the whitefly colony, where they are exposed to adult female B. tabaci oviposition for ca. 48 hours.
At the end of the oviposition exposure period, adult whiteflies are dislodged from the prepared plants by passing compressed air just above the leaves while the leaves are gently disturbed by hand for ca. 15 seconds. The prepared plants, which are now infested with eggs of B. tabaci, are removed from the insectary and any remaining adults are removed from the foliage with a hand-held vacuum fitted with a cage to trap insects. Infested plants are then selected at random and arranged into treatment groups of two or three plants each. Leaves of plants to receive different treatments are separated by a distance of at least 5 cm.
Compounds are applied within 24 hours of removing cotton plants from exposure to oviposition within the B. tabaci colony. Immediately after application, plants are moved to a holding room with a temperature of 30° C. and relative humidity of ca. 60%. Compound efficacy was observed by an assessment at 13 days after application. At this evaluation time, whitefly nymphs that have successfully developed to the third and fourth nymphal stadia can be easily seen on the underside of each cotton leaf with the aid of an illuminated magnifying lens (equipped with a circular fluorescent tube). […]

[3] = tested on: Cat Flea (Cntenocephalides felis); test: Testing with Cat Flea, treated media infested with eggs; settings: eggs held five weeks, adult fleas counted
Protocol: Media is prepared by mixing 1 part dried bovine blood, 4 parts ground dog food pellets, and 95 parts clean sand. Compounds are dissolved in acetone and further diluted in acetone to yield the required range of concentrations. The acetone solutions are applied to measured amounts of media in small dishes. Final concentrations are expressed as micrograms of compound per gram of media. After the acetone has dried, the treated media is dispensed into small glass vials and infested with 5 to 10 cat flea (Cntenocephalides fells) eggs. The vials are loosely capped and held under controlled conditions for five weeks. Activity is assessed based on the average number of adult cat fleas present in the treated vials compared to the average number of adult cat fleas in the media

| Compound | LC90 [1] | times more Comparative Compound A needed to reach the LC90 level than Compound Three ([1]; cotton aphid, ratio of LC90 values) [times] | LC90 [2] | times more Comparative Compound A needed to reach the LC90 level than Compound Three ([2]; sweetpotato whitefly, ratio of LC90 values) [times] | control of cat fleas ([3]; 0.01 μg/g rate in media) [%] | control of cat fleas ([3]; 0.1 μg/g rate in media) [%] |
| --- | --- | --- | --- | --- | --- | --- |
| O=[N+]([O-])/C=C1\NCCN1Cc1ccc(Cl)nc1 [Comparative Compound A] | 9.1 grams per hectare | ~11.7 | 6.66 grams per hectare | ~2.7 |  |  |
| O=C/C(=C1/NCCN1Cc1ccc(Cl)nc1)[N+](=O)[O-] [Compound Three] | less than 0.78 grams per hectare |  | less than 2.52 grams per hectare |  | 81 | 96 |
| CN/C(=C(/C=O)[N+](=O)[O-])N(C)Cc1ccc(Cl)nc1 [Compound One] |  |  |  |  |  | 100 |
